Test results: PubChem BioAssay AID330 (DTP/NCI, 2004)
Values joined by “and” are separate entries in the source; they are usually repeats but may differ in a detail not shown here. Identical values can stand only once. Inconclusive results and toxic doses are left out. Rule for the calls: active = survival T/C of 150% or more; inactive = T/C below 125% in these data. Peptide text beside a SMILES is read from it. * marks the point of attachment. Cbz = O=C(OCc1ccccc1)*; OtBu = CC(C)(C)O*

System: P388 leukemia ip, CD2F1 mice, survival T/C
Assay: NCI In Vivo Anticancer Drug Screen. Data for tumor model P388 Leukemia (intraperitoneal) in CD2F1 (CDF1) mice
Settings: endpoint: median survival time, higher = longer survival
Procedure, shortened: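 Mice carrying the transplanted tumor received test compound or vehicle. Survival was recorded in each group, and the value is the treated-group measurement divided by that of the vehicle-treated control group.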

[1] = dose: 100.0 mg/kg/injection, schedule: Q01DX009 (ip), vehicle: saline with Tween-80
[2] = dose: 50.0 mg/kg/injection, schedule: Q01DX005 (ip), vehicle: saline with Tween-80
[3] = dose: 100.0 mg/kg/injection, schedule: Q01DX005 (ip), vehicle: saline with Tween-80
[4] = dose: 200.0 mg/kg/injection, schedule: Q01DX005 (ip), vehicle: saline with Tween-80
[5] = dose: 60.0 mg/kg/injection, schedule: Q01DX005 (ip), vehicle: Klucel (hydroxypropylcellulose) (HPC)
[6] = dose: 120.0 mg/kg/injection, schedule: Q01DX005 (ip), vehicle: Klucel (hydroxypropylcellulose) (HPC)
[7] = dose: 60.0 mg/kg/injection, schedule: Q01DX005 (ip), vehicle: saline with Tween-80
[8] = dose: 120.0 mg/kg/injection, schedule: Q01DX005 (ip), vehicle: saline with Tween-80
[9] = dose: 50.0 mg/kg/injection, schedule: Q01DX005 (ip), vehicle: Klucel (hydroxypropylcellulose) (HPC)
[10] = dose: 100.0 mg/kg/injection, schedule: Q01DX005 (ip), vehicle: Klucel (hydroxypropylcellulose) (HPC)
[11] = dose: 50.0 mg/kg/injection, schedule: Q01DX009 (ip), vehicle: Klucel (hydroxypropylcellulose) (HPC)

Measured: T/C

CC(=O)OC1CC(C)(C2OC(=O)CC2CO)C2=CC(=O)OC3CC4C(C)(O)C=CC(=O)C4(C)C1C23C (centres undefined)
inactive: dose: 12.5 mg/kg/injection, schedule: Q01DX001 (ip), vehicle: Klucel (hydroxypropylcellulose) (HPC) 100 % of control | dose: 25.0 mg/kg/injection, schedule: Q01DX001 (ip), vehicle: Klucel (hydroxypropylcellulose) (HPC) 100 % of control | dose: 50.0 mg/kg/injection, schedule: Q01DX001 (ip), vehicle: Klucel (hydroxypropylcellulose) (HPC) 102 % of control | dose: 100.0 mg/kg/injection, schedule: Q01DX001 (ip), vehicle: Klucel (hydroxypropylcellulose) (HPC) 105 % of control

OCc1c(CO)c(-c2ccc(Cl)c(Cl)c2)n2c1CCC2
inactive: dose: 13.5 mg/kg/injection, schedule: Q01DX009 (ip), vehicle: saline with Tween-80 107 % of control | dose: 27.0 mg/kg/injection, schedule: Q01DX009 (ip), vehicle: saline with Tween-80 109 % of control | dose: 54.0 mg/kg/injection, schedule: Q01DX009 (ip), vehicle: saline with Tween-80 109 % of control | [1] 116 % of control and 118 % of control | dose: 200.0 mg/kg/injection, schedule: Q01DX009 (ip), vehicle: saline with Tween-80 116 % of control

CCCCCN(CCCCC)CC(=O)c1ccc2cc(Br)c3ccccc3c2c1
inactive: [2] 104 % of control | [3] 101 % of control | [4] 108 % of control

CN1C(=O)N(C)C2(C(=O)N(C)C(=O)N2C)N(C)C1=O
inactive: [5] 99 % of control and 102 % of control | [6] 96 % of control | dose: 240.0 mg/kg/injection, schedule: Q01DX005 (ip), vehicle: Klucel (hydroxypropylcellulose) (HPC) 98 % of control and 105 % of control

O=C1CC(=P(c2ccccc2)(c2ccccc2)c2ccccc2)C(=O)O1
inactive: dose: 50.0 mg/kg/injection, schedule: Q04DX003 (ip), vehicle: saline 102 % of control | dose: 100.0 mg/kg/injection, schedule: Q04DX003 (ip), vehicle: saline 100 % of control | dose: 200.0 mg/kg/injection, schedule: Q04DX003 (ip), vehicle: saline 109 % of control | dose: 400.0 mg/kg/injection, schedule: Q04DX003 (ip), vehicle: saline 106 % of control

O=c1[nH]cc(NS(=O)(=O)c2ccccc2)c(=O)[nH]1
inactive: [7] 105 % of control | [8] 101 % of control

CC(C)CC(NC(=O)C(Cc1ccccc1)NC(=O)C1CCCN1C(=O)OCc1ccccc1)C(=O)OC(C)(C)C (stereo not drawn) (Cbz-Pro-Phe-Leu-OtBu; configuration not given here)
inactive: [2] 100 % of control | [3] 100 % of control | [4] 91 % of control

O=C(CSc1ncnc2nc[nH]c12)c1ccc([N+](=O)[O-])cc1
inactive: dose: 50.0 mg/kg/injection, schedule: Q01DX009 (ip), vehicle: saline 92 % of control | dose: 100.0 mg/kg/injection, schedule: Q01DX009 (ip), vehicle: saline 102 % of control | dose: 200.0 mg/kg/injection, schedule: Q01DX009 (ip), vehicle: saline 112 % of control

C[N+](C)(C)CCC(=O)c1ccc(O)cc1
inactive: dose: 3.13 mg/kg/injection, schedule: Q01DX009 (ip), vehicle: saline 97 % of control | dose: 6.25 mg/kg/injection, schedule: Q01DX009 (ip), vehicle: saline 100 % of control | dose: 12.5 mg/kg/injection, schedule: Q01DX009 (ip), vehicle: saline 118 % of control

COc1ccc2cc1Oc1ccc(cc1)CC1c3cc(OC)c(cc3CCN1C)Oc1c(OC)c(OC)cc3c1C(C2)N(C)CC3 (centres undefined)
inactive: dose: 12.5 mg/kg/injection, schedule: Q01DX005 (ip), vehicle: Klucel (hydroxypropylcellulose) (HPC) 92 % of control | dose: 25.0 mg/kg/injection, schedule: Q01DX005 (ip), vehicle: Klucel (hydroxypropylcellulose) (HPC) 95 % of control | [9] 94 % of control | dose: 100.0 mg/kg/injection, schedule: Q01DX001 (ip), vehicle: saline with Tween-80 98 % of control | [10] 86 % of control | dose: 200.0 mg/kg/injection, schedule: Q01DX001 (ip), vehicle: saline with Tween-80 86 % of control | dose: 400.0 mg/kg/injection, schedule: Q01DX001 (ip), vehicle: saline with Tween-80 86 % of control

O=S(=O)(O)c1ccccc1P(c1ccccc1)c1ccccc1
inactive: [9] 98 % of control | [10] 94 % of control | dose: 200.0 mg/kg/injection, schedule: Q01DX005 (ip), vehicle: Klucel (hydroxypropylcellulose) (HPC) 88 % of control

CCOC(=O)c1ccc(NC(=O)NC2=NCCS2)cc1
inactive: dose: 12.5 mg/kg/injection, schedule: Q01DX009 (ip), vehicle: distilled water + Tween-80 96 % of control | dose: 25.0 mg/kg/injection, schedule: Q01DX009 (ip), vehicle: distilled water + Tween-80 93 % of control | dose: 50.0 mg/kg/injection, schedule: Q01DX009 (ip), vehicle: distilled water + Tween-80 93 % of control | dose: 100.0 mg/kg/injection, schedule: Q01DX009 (ip), vehicle: distilled water + Tween-80 96 % of control | dose: 200.0 mg/kg/injection, schedule: Q01DX009 (ip), vehicle: distilled water + Tween-80 87 % of control

C=CCNC(=S)Nc1sc2c(c1C(=O)OCC)CCCC2
inactive: [11] 93 % of control | dose: 100.0 mg/kg/injection, schedule: Q01DX009 (ip), vehicle: Klucel (hydroxypropylcellulose) (HPC) 94 % of control | dose: 200.0 mg/kg/injection, schedule: Q01DX009 (ip), vehicle: Klucel (hydroxypropylcellulose) (HPC) 89 % of control

Cc1cc[c]([Bi]([c]2ccc(C)cc2)[c]2ccc(C)cc2)cc1
inactive: [5] 105 % of control | [6] 96 % of control

O=C1OC(=O)c2cc([N+](=O)[O-])cc3cccc1c23
inactive: [2] 108 % of control and 110 % of control (2×) | [3] 100 % of control and 103 % of control and 111 % of control | [4] 102 % of control and 110 % of control and 123 % of control | dose: 400.0 mg/kg/injection, schedule: Q01DX005 (ip), vehicle: saline with Tween-80 119 % of control

CCCCCCCN(CCCCCCC)CC(O)c1c(Br)c2ccccc2c2ccccc12 (centres undefined)
inactive: dose: 10.0 mg/kg/injection, schedule: Q01DX009 (ip), vehicle: saline with Tween-80 115 % of control | dose: 20.0 mg/kg/injection, schedule: Q01DX009 (ip), vehicle: saline with Tween-80 115 % of control | dose: 40.0 mg/kg/injection, schedule: Q01DX009 (ip), vehicle: saline with Tween-80 98 % of control

CCC1OC2(C)C(O)C(/C=C/C=C/C=C/c3oc(=O)cc(OC)c3C)OC1(C)C2OC(C)=O (centres undefined)
inactive: dose: 0.5 mg/kg/injection, schedule: Q01DX009 (ip), vehicle: Klucel (hydroxypropylcellulose) (HPC) 109 % of control | dose: 1.0 mg/kg/injection, schedule: Q01DX009 (ip), vehicle: Klucel (hydroxypropylcellulose) (HPC) 105 % of control | dose: 2.0 mg/kg/injection, schedule: Q01DX009 (ip), vehicle: Klucel (hydroxypropylcellulose) (HPC) 100 % of control

N#Cc1nc(CC(=O)c2ccc(Cl)cc2Cl)c(CC(=O)c2ccc(Cl)cc2Cl)nc1C#N
inactive: dose: 60.0 mg/kg/injection, schedule: Q01DX005 (ip), vehicle: saline 112 % of control | dose: 120.0 mg/kg/injection, schedule: Q01DX005 (ip), vehicle: saline 106 % of control

Nc1nc2c(C(=O)NCc3cccs3)nnn2c2cccc(Cl)c12
inactive: [7] 96 % of control | [8] 92 % of control | dose: 240.0 mg/kg/injection, schedule: Q01DX005 (ip), vehicle: saline with Tween-80 95 % of control

CC(=O)OC1OC(CS[As](C2CCCCC2)C2CCCCC2)C(OC(C)=O)C(OC(C)=O)C1OC(C)=O (centres undefined)
inactive: dose: 12.5 mg/kg/injection, schedule: Q01DX009 (ip), vehicle: Klucel (hydroxypropylcellulose) (HPC) 104 % of control and 111 % of control | dose: 25.0 mg/kg/injection, schedule: Q01DX009 (ip), vehicle: Klucel (hydroxypropylcellulose) (HPC) 104 % of control and 120 % of control | [11] 98 % of control and 101 % of control

Cc1ccc2c(C(=O)O)cc(N)cc2n1
inactive: dose: 2.0 mg/kg/injection, schedule: Q01DX005 (ip), vehicle: Klucel (hydroxypropylcellulose) (HPC) 100 % of control | dose: 4.0 mg/kg/injection, schedule: Q01DX005 (ip), vehicle: Klucel (hydroxypropylcellulose) (HPC) 104 % of control | dose: 7.5 mg/kg/injection, schedule: Q01DX005 (ip), vehicle: Klucel (hydroxypropylcellulose) (HPC) 102 % of control | dose: 8.0 mg/kg/injection, schedule: Q01DX005 (ip), vehicle: Klucel (hydroxypropylcellulose) (HPC) 97 % of control

NNS(=O)(=O)c1ccccc1
inactive: dose: 50.0 mg/kg/injection, schedule: Q01DX009 (ip), vehicle: saline with Tween-80 103 % of control | [1] 103 % of control
